Data as given in ChEMBL document CHEMBL4739711, “Method of inhibiting DYRK1B” (2020).
Each block holds one compound with its values, some of them ahead of it. The source made the active and inactive calls. The rule behind the calls is not given here.

Assays:
[1] = target: T1, Zinc finger protein GLI1 (Homo sapiens) (UniProt P08151); test: Inhibition of GLI in SAG stimulated human Daoy cells assessed as prevention of Hedgehog signaling by measuring reduction of PTCH1 expression at 20 uM in presence of siRNA for SUFU by Western blot analysis; assay type: tissue-based
T1 sequence (whole entry): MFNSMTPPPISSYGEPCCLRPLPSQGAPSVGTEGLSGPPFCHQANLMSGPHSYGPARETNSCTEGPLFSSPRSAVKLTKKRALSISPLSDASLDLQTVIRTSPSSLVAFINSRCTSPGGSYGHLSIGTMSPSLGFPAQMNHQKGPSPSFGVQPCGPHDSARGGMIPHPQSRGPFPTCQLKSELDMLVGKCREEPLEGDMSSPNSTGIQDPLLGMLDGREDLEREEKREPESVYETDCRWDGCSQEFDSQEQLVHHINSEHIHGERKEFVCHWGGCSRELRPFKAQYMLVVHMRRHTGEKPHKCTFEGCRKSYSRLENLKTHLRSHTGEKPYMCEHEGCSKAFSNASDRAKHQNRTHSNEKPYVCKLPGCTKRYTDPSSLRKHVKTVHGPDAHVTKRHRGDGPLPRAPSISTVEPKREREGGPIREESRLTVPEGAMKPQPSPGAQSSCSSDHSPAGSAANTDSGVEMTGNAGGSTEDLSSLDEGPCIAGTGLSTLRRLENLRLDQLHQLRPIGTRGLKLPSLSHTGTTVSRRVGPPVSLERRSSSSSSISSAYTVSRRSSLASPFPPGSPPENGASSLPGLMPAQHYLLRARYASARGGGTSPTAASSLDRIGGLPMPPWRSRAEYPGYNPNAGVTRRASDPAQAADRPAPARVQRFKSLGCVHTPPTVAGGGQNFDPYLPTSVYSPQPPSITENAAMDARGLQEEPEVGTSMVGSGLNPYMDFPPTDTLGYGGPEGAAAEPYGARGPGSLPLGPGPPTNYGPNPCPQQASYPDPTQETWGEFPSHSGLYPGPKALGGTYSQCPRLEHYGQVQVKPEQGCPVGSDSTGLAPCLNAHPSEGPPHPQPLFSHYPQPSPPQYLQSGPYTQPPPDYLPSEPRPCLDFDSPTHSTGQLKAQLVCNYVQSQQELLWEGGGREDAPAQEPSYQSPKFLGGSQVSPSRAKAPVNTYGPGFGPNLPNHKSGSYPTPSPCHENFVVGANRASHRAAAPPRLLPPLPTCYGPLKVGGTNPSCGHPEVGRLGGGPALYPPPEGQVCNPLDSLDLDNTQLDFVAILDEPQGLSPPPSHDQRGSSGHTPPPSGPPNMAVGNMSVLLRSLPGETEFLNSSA

[2] = target: T1, Zinc finger protein GLI1 (Homo sapiens); test: Inhibition of GLI in SAG stimulated human Daoy cells assessed as prevention of Hedgehog signaling by measuring reduction of GLI expression at 20 uM in presence of siRNA for SUFU by Western blot analysis; assay type: tissue-based
[3] = target: Dual specificity tyrosine-phosphorylation-regulated kinase 1B (Homo sapiens) (UniProt Q9Y463); test: Inhibition of DYRK1B in SAG stimulated human Daoy cells assessed as prevention of Hedgehog signaling by measuring reduction of GLI expression at 1 to 5 uM by Western blot analysis; assay type: tissue-based; conditions: dose 1-5 µM
Chain of Dual specificity tyrosine-phosphorylation-regulated kinase 1B (Homo sapiens) (Q9Y463 whole entry, looked up): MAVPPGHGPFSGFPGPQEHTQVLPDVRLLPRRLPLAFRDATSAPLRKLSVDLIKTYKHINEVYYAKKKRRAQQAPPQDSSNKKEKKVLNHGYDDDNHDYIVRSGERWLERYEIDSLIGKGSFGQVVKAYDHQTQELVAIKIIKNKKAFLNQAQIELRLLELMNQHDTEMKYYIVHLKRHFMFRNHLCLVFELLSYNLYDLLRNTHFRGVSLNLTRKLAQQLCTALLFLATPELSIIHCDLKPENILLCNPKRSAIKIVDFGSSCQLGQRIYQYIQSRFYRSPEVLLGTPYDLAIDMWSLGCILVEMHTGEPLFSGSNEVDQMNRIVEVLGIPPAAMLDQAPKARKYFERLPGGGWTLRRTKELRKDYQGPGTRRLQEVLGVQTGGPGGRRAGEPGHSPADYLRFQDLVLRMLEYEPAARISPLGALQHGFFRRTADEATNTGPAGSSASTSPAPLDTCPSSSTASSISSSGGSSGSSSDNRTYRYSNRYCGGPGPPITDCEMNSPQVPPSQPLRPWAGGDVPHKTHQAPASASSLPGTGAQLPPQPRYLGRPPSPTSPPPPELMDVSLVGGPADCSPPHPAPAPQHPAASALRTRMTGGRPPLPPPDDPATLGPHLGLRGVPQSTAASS

[4] = target: Dual specificity tyrosine-phosphorylation-regulated kinase 1B (Homo sapiens) (UniProt Q9Y463); test: Inhibition of DYRK1B in human PANC-1 cell assessed as prevention of Hedgehog signaling by measuring reduction of GLI expression at 10 to 25 uM by Western blot analysis; assay type: tissue-based; conditions: dose 10-25 µM
[5] = tested on: PANC-1; test: Inhibition of colony formation in human PANC-1 cells at 10 to 25 uM; assay type: functional, cell-based; conditions: dose 10-25 µM
[6] = target: Protein smoothened (Mus musculus) (UniProt P56726); test: Inhibition of SMO in SAG stimulated mouse BCC cells assessed as prevention of Hedgehog signaling by measuring reduction of GLI expression at 10 to 25 uM by Western blot analysis; assay type: cell-based; conditions: dose 10-25 µM
Chain of Protein smoothened (Mus musculus) (P56726 whole entry): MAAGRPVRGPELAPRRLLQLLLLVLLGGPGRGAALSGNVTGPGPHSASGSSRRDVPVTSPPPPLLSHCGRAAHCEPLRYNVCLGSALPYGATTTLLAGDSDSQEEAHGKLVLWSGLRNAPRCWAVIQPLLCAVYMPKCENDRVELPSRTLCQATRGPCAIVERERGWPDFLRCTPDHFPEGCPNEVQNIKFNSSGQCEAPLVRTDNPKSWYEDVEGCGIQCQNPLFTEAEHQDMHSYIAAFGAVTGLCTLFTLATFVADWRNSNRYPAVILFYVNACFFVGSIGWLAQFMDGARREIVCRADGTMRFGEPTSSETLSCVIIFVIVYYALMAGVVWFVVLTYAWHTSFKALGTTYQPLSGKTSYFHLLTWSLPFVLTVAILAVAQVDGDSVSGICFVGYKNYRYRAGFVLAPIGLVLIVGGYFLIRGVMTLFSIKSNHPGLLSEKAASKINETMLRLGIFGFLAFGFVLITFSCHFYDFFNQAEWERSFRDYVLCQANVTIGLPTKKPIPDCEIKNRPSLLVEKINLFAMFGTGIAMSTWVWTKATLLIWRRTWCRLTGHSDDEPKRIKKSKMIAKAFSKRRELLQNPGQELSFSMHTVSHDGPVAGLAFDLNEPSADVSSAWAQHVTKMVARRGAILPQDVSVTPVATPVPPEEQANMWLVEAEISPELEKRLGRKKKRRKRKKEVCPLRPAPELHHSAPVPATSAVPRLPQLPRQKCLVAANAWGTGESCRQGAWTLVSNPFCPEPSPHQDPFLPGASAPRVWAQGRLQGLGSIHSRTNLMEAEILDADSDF

[7] = target: Dual specificity tyrosine-phosphorylation-regulated kinase 1B (Homo sapiens) (UniProt Q9Y463); test: Inhibition of DYRK1B in SAG stimulated human Daoy cells assessed as prevention of Hedgehog signaling by measuring reduction of PTCH1 expression at 10 to 25 uM by Western blot analysis; assay type: tissue-based; conditions: dose 10-25 µM
[8] = target: Dual specificity tyrosine-phosphorylation-regulated kinase 1B (Homo sapiens) (UniProt Q9Y463); test: Inhibition of DYRK1B in human A673 cells assessed as prevention of Hedgehog signaling by measuring reduction of GLI expression at 10 to 25 uM by Western blot analysis; assay type: cell-based; conditions: dose 10-25 µM
[9] = target: Dual specificity tyrosine-phosphorylation-regulated kinase 1B (Homo sapiens) (UniProt Q9Y463); test: Inhibition of DYRK1B in SAG stimulated human Daoy cells assessed as prevention of Hedgehog signaling by measuring reduction of GLI expression at 10 to 25 uM by Western blot analysis; assay type: tissue-based; conditions: dose 10-25 µM
[10] = tested on: PANC-1; test: Toxicity in human PANC-1 cells assessed as effect on cell viability at 10 to 25 uM; assay type: cell-based; conditions: panc-1, 25 µM, dose 10-25 µM
[11] = tested on: PANC-1; test: Inhibition of colony formation in human PANC-1 cells at 0.5 uM; assay type: functional, cell-based
[12] = tested on: PANC-1; test: Toxicity in human PANC-1 cells assessed as effect on cell viability at 0.5 uM; assay type: cell-based; conditions: panc-1, 0.5 µM

inhibition [1]: Active
inhibition [2]: Active
SMILES: CN(C)c1ccccc1CN1CCCN(Cc2ccccc2N(C)C)C1c1ccncc1

inhibition [3]: Active
SMILES: FC(F)(F)c1ccc2[nH]c(Nc3ncccn3)nc2c1

SMILES: COc1ccc2c(c1)[nH]c1c(C)nccc12 [HARMINE]
inhibition [4]: Active
inhibition [5]: Active
inhibition [6]: Active
inhibition [7]: Active
inhibition [8]: Active
inhibition [9]: Active
Activity [10]: Non-Toxic

SMILES: CS(=O)(=O)c1ccc(C(=O)Nc2ccc(Cl)c(-c3ccccn3)c2)c(Cl)c1 [VISMODEGIB]
inhibition [11]: inactive
Activity [12]: Non-Toxic
